The numbers were not newly measured in patent US20070224292A1, “Extended effect ergogenic drink” (priority 2006, published 2007), which cites them from elsewhere.

The conditions of data set [1]: during exercise in normal subjects.
For data set [2] the following is noted: after two hours; males (but not females).
For data set [3] the following is noted: first fifteen minutes of exercise.
For data set [4] the following is noted: visual monitoring test simulating night driving.
The conditions of data set [5]: three women; 1 mg chromium with 100 mg vitamin C versus 1 mg chromium without vitamin C.
For data set [6] the following is noted: 200 to 400 mcg chromium three times per day, polynicotinate or picolinate form.
The conditions of data set [7]: animals; given at the same time as vitamin C.
The conditions of data set [8]: immediate-release nicotinic acid.
For data set [9] the following is noted: for time to reach peak serum concentrations: following ingestion.
The conditions of data set [10]: in vivo.

Like-named read-outs stand apart in the source and are kept apart here. Bounds are passed on as bounds.

Consider `Cn1c(=O)c2c(ncn2C)n(C)c1=O` [Caffeine], for which the “circulating free fatty acids and glycerol” value in data set [1] was “increase circulating free fatty acids and glycerol”. Moreover, in data set [2], the “CNS stimulation compared to placebo” value is “lower CNS (Central Nervous System) stimulation”. The “time to reach peak levels in the bloodstream” value (absorbed through stomach and small intestine) is 15 to 45 min. Further, the “half-life, women taking oral contraceptives” value (women taking oral contraceptives) is listed as “up to 12 hours”. Also, the “reduction of the loss of glycogen” value in data set [3] is reported as “fifty”. The “effect on attention lapses” value in [4] was “prevent attention lapses”.
Consider `[Cr]` [Chromium], for which the “plasma levels of chromium” value in data set [5] is “higher plasma levels of chromium”. Also, the “effect on insulin sensitivity” value in [6] is on record as “improve insulin sensitivity”. Moreover, the chromium uptake entry in data set [7] is “enhanced”.
For the compound `O=C(O)c1cccnc1` [Niacin, Nicotinic acid], in [8], the duration of flushing entry is “up to one” and the “time to onset of flushing following ingestion” value is not above 20 min. Further, the “time to reach peak serum concentrations” value in [9] (extended-release form) was 4 to 5 h. In addition, in data set [9] (immediate release Niacin), the half-life entry is “approximately 1 hour”. Further, the “time to reach peak serum concentrations” value in data set [9] (immediate-release or crystalline form) is listed as “approximately 45 minutes”.
For the compound Chromium Polynicotinate, in data set [10], the “effect on blood lipid levels” value is listed as “lower blood lipid levels”.
